Results published in patent publication US20110190267A1, “PRODRUGS OF OPIOIDS AND USES THEREOF” (priority 2010, published 2011).
“And” between values parts separate entries of the source, which are not always exact repeats. Equal values may be shown once.

Assays:
[1] = biological target: T1, Acetylcholinesterase (h), human recombinant (HEK-293 cells) (Homo sapiens, UniProt P22303); assay: Human acetylcholine esterase inhibition (Example 31); type: biochemical; details: AMTCh 50 μM, 30 min./37° C., photometry; read-out: apparent IC50
T1 construct: host or cells: HEK-293 cells
Procedure: The results are expressed as a percent of control specific activity ((measured specific activity/control specific activity)×100) obtained in the presence of the test compounds.
The IC50 values (concentration causing a half-maximal inhibition of control specific activity), and Hill coefficients (nh) were determined by non-linear regression analysis of the inhibition curves generated with mean replicate values using hill equation curve fitting (y=d+[(a−d)/(1+(c/c50)^nh)], where y=specific activity, d=minimum specific activity, a=maximum specific activity, c=compound concentration, C50=IC50, and nh=slope factor).
This analysis was performed using software developed at Cerep (Hill software) and validated by comparison with data generated by the commercial software Sigmaplot® 4.0 for Windows®.

[2] = Pharmacokinetics of meptazinol or meptazinol PABA carbamate, monkeys (Example 29); type: in vivo, monkey; details: for AUC / C0 / t½ / Cmax / T>50%Cmax / Tmax / half-life: meptazinol in plasma; for Fabs: meptazinol; for Vd: read-out: Vss; for half-life: read-out: t½ (converted)
From the text: The results are given in Tables 15 to 18 and shown graphically in FIG. 4.

[3] = Pharmacokinetics of meptazinol or meptazinol PABA carbamate, dogs (Example 27); type: in vivo, dog; details: for Vd: read-out: Vss; for Fabs: meptazinol
From the text: The results are given in Tables 8 to 11 and shown graphically in FIG. 2.

[4] = Pharmacokinetics of meptazinol or meptazinol PABA carbamate, rats (Example 30); details: for Fabs: meptazinol; for clearance: CL; for Vd: Vss
Procedure: Blood samples were taken at various times after administration and submitted to analysis for the parent drug and pro-drug using a validated LC-MS-MS assay. Pharmacokinetic parameters derived from the plasma analytical data were determined using Win Nonlin.

[5] = Pharmacokinetics of meptazinol from PABA analogue prodrugs, monkeys (Example 26); type: in vivo; details: monkey, plasma, po, 2 mg/kg
Procedure: (§1) Blood samples were taken at various times after administration and submitted to analysis for the parent drug and prodrug using a validated LC-MS-MS assay. Pharmacokinetic parameters derived from the plasma analytical data were determined using Win Nonlin.

[6] = Norbury et al. (1983); cited from earlier work
[7] = Pharmacokinetics of meptazinol from PABA analogue prodrugs, dogs (Example 26); type: in vivo; details: dog, plasma, po, 1 mg/kg
Procedure: as §1

[8] = iv meptazinol 1 mg free base equivalents/kg, individual animals
[9] = oral meptazinol 10 mg free base equivalents/kg, individual animals
[10] = oral meptazinol 10 mg free base equivalents/kg, mean
[11] = monkey, plasma, iv, 1 mg/kg, iv meptazinol 1 mg free base equivalents/kg, individual animals
[12] = monkey, plasma, iv, 1 mg/kg, iv meptazinol 1 mg free base equivalents/kg, mean
[13] = dog, plasma, iv, 1 mg/kg, iv meptazinol 1 mg free base equivalents/kg, individual animals
[14] = dog, plasma, iv, 1 mg/kg, iv meptazinol 1 mg free base equivalents/kg, mean
[15] = meptazinol in plasma, oral meptazinol 1 mg free base equivalents/kg, individual animals
[16] = meptazinol in plasma, oral meptazinol 1 mg free base equivalents/kg, mean
[17] = iv meptazinol 1 mg free base equivalents/kg, rats, individual animals
[18] = meptazinol in plasma, iv meptazinol 1 mg free base equivalents/kg, rats, individual animals
[19] = meptazinol in plasma, oral meptazinol 1 mg free base equivalents/kg, rats, individual animals
[20] = rat, plasma, iv, 1 mg/kg, iv meptazinol 1 mg free base equivalents/kg, rats, individual animals
[21] = rat, plasma, iv, 1 mg/kg, iv meptazinol 1 mg free base equivalents/kg, rats, mean
[22] = read-out: AUC* (mean ngh/mL), AUC0-t

T1 sequence (P22303 32-614): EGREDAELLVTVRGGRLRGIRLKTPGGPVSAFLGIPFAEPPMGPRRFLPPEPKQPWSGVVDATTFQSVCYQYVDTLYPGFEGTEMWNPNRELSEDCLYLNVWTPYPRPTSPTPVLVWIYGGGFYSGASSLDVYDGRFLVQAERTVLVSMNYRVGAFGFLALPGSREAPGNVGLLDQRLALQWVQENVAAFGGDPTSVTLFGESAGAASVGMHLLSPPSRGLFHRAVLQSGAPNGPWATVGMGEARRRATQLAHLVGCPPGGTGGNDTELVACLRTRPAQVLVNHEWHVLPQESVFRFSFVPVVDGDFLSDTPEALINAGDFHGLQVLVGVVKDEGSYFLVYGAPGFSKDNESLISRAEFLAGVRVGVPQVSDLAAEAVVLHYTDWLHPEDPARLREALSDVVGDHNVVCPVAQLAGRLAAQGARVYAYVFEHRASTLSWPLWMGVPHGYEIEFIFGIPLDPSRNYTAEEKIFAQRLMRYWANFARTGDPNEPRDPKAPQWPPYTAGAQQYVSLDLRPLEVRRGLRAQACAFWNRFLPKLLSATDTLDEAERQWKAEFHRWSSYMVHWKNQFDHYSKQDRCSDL

CCC1(c2cccc(O)c2)CCCCN(C)C1 (stereo not shown) [meptazinol]
IC50 [1]: 1.5 µM
CL [2, 8]: 66.2 mL/min/kg and 73.2 mL/min/kg and 77.3 mL/min/kg and 70.3 mL/min/kg
Vss [2, 8]: 4.88 L and 4.11 L and 4.96 L
AUC [2, 8]: 252 ng·h/mL and 228 ng·h/mL and 215 ng·h/mL and 237 ng·h/mL
C0 [2, 8]: 334 ng/mL and 226 ng/mL (2×) and 369 ng/mL
t½ [2, 8]: 49.8 min and 40.8 min and 52.2 min
AUC [2, 9]: 47.7 ng·h/mL and 37.7 ng·h/mL and 38.2 ng·h/mL and 47.8 ng·h/mL
Cmax [2, 9]: 18.3 ng/mL and 19.8 ng/mL and 22.5 ng/mL and 19 ng/mL
T>50%Cmax [2, 9]: 0.9 h and 2.4 h and 1.7 h and 1.4 h and 2.3 h
Tmax [2, 9]: 120 min and 60 min
t½ [2, 9]: 48 min and 54 min and 42 min
T>50%Cmax [2, 10]: 1.7 h
Fabs [2, 9]: 1.6% (3×) and 2.0% (2×)
Fabs [2, 10]: 1.8%
clearance [2, 11]: 73.7 mL/min/kg
Vd [2, 11]: 4.83 L
clearance [2, 12]: 72.2 mL/min/kg
Vd [2, 12]: 4.72 L
AUC ([2]; monkey, plasma, iv, 1 mg/kg, iv meptazinol 1 mg free base equivalents/kg, individual animals, read-out: AUC): 227 ng·h/mL
C0 ([2]; monkey, plasma, iv, 1 mg/kg, iv meptazinol 1 mg free base equivalents/kg, individual animals, read-out: C0): 211 ng/mL
half-life [2, 11]: 48.6 min
AUC ([2]; monkey, plasma, iv, 1 mg/kg, iv meptazinol 1 mg free base equivalents/kg, mean, read-out: AUC): 232 ng·h/mL
C0 ([2]; monkey, plasma, iv, 1 mg/kg, iv meptazinol 1 mg free base equivalents/kg, mean, read-out: C0): 273 ng/mL
half-life [2, 12]: 50.4 min
AUC ([2]; monkey, plasma, po, 10 mg meptazinol free base equivalents/kg, oral meptazinol 10 mg free base equivalents/kg, individual animals, read-out: AUC): 39.4 ng·h/mL
Cmax ([2]; monkey, plasma, po, 10 mg meptazinol free base equivalents/kg, oral meptazinol 10 mg free base equivalents/kg, individual animals, read-out: Cmax): 26.1 ng/mL
half-life ([2]; monkey, plasma, po, 10 mg meptazinol free base equivalents/kg, oral meptazinol 10 mg free base equivalents/kg, individual animals): 60 min
AUC ([2]; monkey, plasma, po, 10 mg meptazinol free base equivalents/kg, oral meptazinol 10 mg free base equivalents/kg, mean, read-out: AUC): 42.2 ng·h/mL
Cmax ([2]; monkey, plasma, po, 10 mg meptazinol free base equivalents/kg, oral meptazinol 10 mg free base equivalents/kg, mean, read-out: Cmax): 21.1 ng/mL
half-life ([2]; monkey, plasma, po, 10 mg meptazinol free base equivalents/kg, oral meptazinol 10 mg free base equivalents/kg, mean): 48 min
Tmax ([2]; monkey, plasma, po, 10 mg meptazinol free base equivalents/kg, oral meptazinol 10 mg free base equivalents/kg, median value, read-out: Tmax): 30 min
clearance [3, 13]: 67.3 mL/min/kg
Vd [3, 13]: 4.14 L
clearance [3, 14]: 62.7 mL/min/kg
Vd [3, 14]: 3.55 L
AUC ([3]; dog, plasma, iv, 1 mg/kg, meptazinol in plasma, iv meptazinol 1 mg free base equivalents/kg, individual animals, read-out: AUC): 247 ng·h/mL
AUC ([3]; dog, plasma, iv, 1 mg/kg, meptazinol in plasma, iv meptazinol 1 mg free base equivalents/kg, mean, read-out: AUC): 269 ng·h/mL
Cmax ([3]; dog, plasma, po, 1 mg/kg, meptazinol in plasma, oral meptazinol 1 mg free base equivalents/kg, individual animals, read-out: Cmax): 4.22 ng/mL
AUC ([3]; dog, plasma, po, 1 mg/kg, meptazinol in plasma, oral meptazinol 1 mg free base equivalents/kg, mean, read-out: AUC): 15.6 ng·h/mL
half-life ([3]; dog, plasma, po, 1 mg/kg, meptazinol in plasma, oral meptazinol 1 mg free base equivalents/kg, mean, read-out: t½ (converted)): 108 min
CL [3, 8]: 60.8 mL/min/kg and 57.2 mL/min/kg and 54.5 mL/min/kg and 73.3 mL/min/kg
Co ([3]; meptazinol in plasma, iv meptazinol 1 mg free base equivalents/kg, individual animals): 340 ng/mL and 308 ng/mL and 350 ng/mL and 402 ng/mL and 477 ng/mL
Co ([3]; meptazinol in plasma, iv meptazinol 1 mg free base equivalents/kg, mean): 375 ng/mL
AUC [3, 15]: 15.1 ng · h/mL and 15.8^b ng · h/mL and 23.3 ng · h/mL and 19.6^b ng · h/mL and 8.52 ng · h/mL
Cmax [3, 15]: 6.82 ng/mL and 6.79 ng/mL and 5.04 ng/mL and 3.52 ng/mL
T>50%Cmax [3, 15]: 2.5 h and 1.1 h and 1.9 h and 2.4 h and 1.8 h
Tmax [3, 15]: 0.5 h and 1 h (2×)
Cmax [3, 16]: 5.28 ng/mL
T>50%Cmax [3, 16]: 1.9 h
Fabs ([3]; oral meptazinol 1 mg free base equivalents/kg, individual animals): 6.1% and 5.8% and 8.0% and 6.4% and 3.8%
Fabs ([3]; oral meptazinol 1 mg free base equivalents/kg, mean): 6.0±2.1% and 6.0%
CL [4, 17]: 75.2 mL/min/kg and 88.3 mL/min/kg and 89.3 mL/min/kg and 92.2 mL/min/kg
Vss [4, 17]: 4.0 L and 5.4 L (2×) and 5.1 L
AUC [4, 18]: 222 ng·h/mL and 189 ng·h/mL and 187 ng·h/mL and 181 ng·h/mL
C0 [4, 18]: 246 ng/mL and 259 ng/mL and 267 ng/mL and 244 ng/mL
t½ [4, 18]: 36 min and 42 min
AUC* ([4]; meptazinol in plasma, oral meptazinol 1 mg free base equivalents/kg, rats, calculated based on half-life from previous iv study, individual animals): 3.1 ng·h/mL and 2.8 ng·h/mL and 4.9 ng·h/mL
Cmax [4, 19]: 1.12 ng/mL and 1.49 ng/mL and 1.44 ng/mL
t½* [4, 19]: 54 min
Fabs ([4]; oral meptazinol 1 mg free base equivalents/kg, rats, individual animals): 1.6% (2×) and 1.5% and 2.6%
Fabs ([4]; oral meptazinol 1 mg free base equivalents/kg, rats, mean): 1.8±0.5% and 1.8%
AUC ([4]; rat, plasma, iv, 1 mg/kg, AUC, meptazinol in plasma, iv meptazinol 1 mg free base equivalents/kg, rats, individual animals): 161 ng·h/mL
AUC ([4]; rat, plasma, iv, 1 mg/kg, AUC, meptazinol in plasma, iv meptazinol 1 mg free base equivalents/kg, rats, mean): 188 ng·h/mL
C0 ([4]; rat, plasma, iv, 1 mg/kg, C0, meptazinol in plasma, iv meptazinol 1 mg free base equivalents/kg, rats, individual animals): 191 ng/mL
C0 ([4]; rat, plasma, iv, 1 mg/kg, C0, meptazinol in plasma, iv meptazinol 1 mg free base equivalents/kg, rats, mean): 241 ng/mL
clearance [4, 20]: 104 mL/min/kg
clearance [4, 21]: 89.7 mL/min/kg
Vd [4, 20]: 6.8 L
Vd [4, 21]: 5.3 L
half-life ([4]; rat, plasma, iv, 1 mg/kg, t½, meptazinol in plasma, iv meptazinol 1 mg free base equivalents/kg, rats, individual animals): 48 min
half-life ([4]; rat, plasma, iv, 1 mg/kg, t½, meptazinol in plasma, iv meptazinol 1 mg free base equivalents/kg, rats, mean): 42 min
Tmax ([4]; rat, plasma, po, 1 mg/kg): 30 min
AUC ([4]; rat, plasma, po, 1 mg/kg, AUC*, meptazinol in plasma, oral meptazinol 1 mg free base equivalents/kg, rats, calculated based on half-life from previous iv study, individual animals): 2.9 ng·h/mL
AUC ([4]; rat, plasma, po, 1 mg/kg, AUC*, meptazinol in plasma, oral meptazinol 1 mg free base equivalents/kg, rats, calculated based on half-life from previous iv study, mean): 3.4 ng·h/mL
Cmax ([4]; rat, plasma, po, 1 mg/kg, Cmax, meptazinol in plasma, oral meptazinol 1 mg free base equivalents/kg, rats, individual animals): 1.93 ng/mL
Cmax ([4]; rat, plasma, po, 1 mg/kg, Cmax, meptazinol in plasma, oral meptazinol 1 mg free base equivalents/kg, rats, mean): 1.6 ng/mL
half-life ([4]; rat, plasma, po, 1 mg/kg, t½*, meptazinol in plasma, oral meptazinol 1 mg free base equivalents/kg, rats, mean): 78 min
Cmax [5]: 1.3 ± 0.3 ng/mL
AUC(0-t) [5, 22]: 3.1 ± 0.7 ng·h/mL
oral bioavailability [6]: < 10%
Cmax [7]: 4 ± 5.5 ng/mL
AUC(0-t) [7, 22]: 5.4 ± 5.9 ng·h/mL
